Experimental data: paper PMC11843629, “Development of ketobenzothiazole-based peptidomimetic TMPRSS13 inhibitors with low nanomolar potency” (Journal of Enzyme Inhibition and Medicinal Chemistry, 2025)
Changes are numbered by the printed parent chain. Where two headings read alike, the source gives them in different places.

Experiments:
TMPRSS13 = target: T1, TMPRSS13 (Homo sapiens, UniProt Q9BYE2, K566A/R563A/R565A); test: In vitro inhibition assay, recombinant TMPRSS13-AFAAS-6His, Boc-RVRR-AMC; format: biochemical; conditions: dose-response curve, Cheng-Prusoff equation
T1 construct: Shedding of the TMPRSS13 catalytic domain was detected for both constructs in the cell media; made in house; host or cells: Expi293F cells
T1 sequence (Q9BYE2 with tags, fused parts or gaps isoform Q9BYE2-6 limits assumed): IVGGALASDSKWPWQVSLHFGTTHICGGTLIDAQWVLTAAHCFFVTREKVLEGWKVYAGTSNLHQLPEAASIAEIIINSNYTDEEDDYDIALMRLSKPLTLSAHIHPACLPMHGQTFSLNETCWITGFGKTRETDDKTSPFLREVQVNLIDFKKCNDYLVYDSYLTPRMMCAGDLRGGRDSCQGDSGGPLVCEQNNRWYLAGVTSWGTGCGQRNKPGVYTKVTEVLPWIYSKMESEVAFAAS
Description: TMPRSS13-AFAAS-6His was expressed via the Expi293 Expression System Kit (Thermo Fisher Scientific, A14635) according to the manufacturer’s instructions and purified via IMAC chromatography. Briefly, Expi293F cells were transfected for 48 h with the TMPRSS13-AFAAS-6His construct, and media containing the shed recombinant protease was injected on a HisTrap Excel column (Cytiva, 17371206) via an ÄKTA Start protein purification system (Cytiva). The bound proteins were then eluted (20 mM sodium phosphate pH 7.4, 500 mM NaCl, and 500 mM imidazole), and the TMPRSS13-containing fractions were dialysed for 16 h at 4 °C in storage buffer (20 mM sodium phosphate pH 7.4, 150 mM NaCl, and 10% glycerol). Proteins were then concentrated via a 10 kDa Amicon Ultra centrifugal filter (Millipore Sigma, UFC8010) and stored at −80 °C.
(§1) Recombinant TMPRSS13-AFAAS-6His (this study) and matriptase[34] were expressed and purified as described. Recombinant human furin, Factor Xa (R&D Systems) and thrombin (MilliporeSigma) were obtained from commercial sources. Assays were performed in a buffer composed of 50 mM HEPES pH 7.4, 1 mM β-mercaptoethanol, 1 mM CaCl2 and 500 μg/ml BSA for furin and 50 mM HEPES pH 7.4, 150 mM NaCl and 0.1% BSA for other proteases. Assays were performed at room temperature using fluorogenic substrates (Boc-RVRR-AMC for furin and TMPRSS13, Boc-QAR-AMC for other proteases). The enzymatic activity was measured via fluorescence (excitation at 360 nm and emission at 460 nm) at room temperature using an HTX Synergy microplate reader (Agilent). Kis for TMPRSS13 and Factor Xa (FXa) were derived from IC50 dose–response curves using the Cheng-Prusoff equation[35] for reversible competitive inhibitors. For matripase, a plot of the enzyme velocity as a function of the inhibitor concentration was fitted with nonlinear regression analysis via the Morrison Ki equation[36] for competitive tight-binding inhibitors.

WT TMPRSS13 = target: T2, WT TMPRSS13 (Homo sapiens, UniProt Q9BYE2); test: In cellulo inhibitory activity in TMPRSS13-transfected Vero cells; format: cell-based; conditions: 10 µM compound, 24 h, media, relative to DMSO; for remaining activity at 10 µM: read-out: residual activity of TMPRSS13
T2 construct: the full length TMPRSS13 (TMPRSS13-WT); expressed in transfected cells; host or cells: Vero C1008 (Vero E6) cells
T2 sequence (Q9BYE2 326-567 isoform Q9BYE2-6 limits assumed): T1 sequence (Q9BYE2 with tags, fused parts or gaps isoform Q9BYE2-6 limits assumed) with A238R, A240R, A241K
Description: Vero C1008 cells were grown in 12-well plates (200K cells per well) and transfected for 24 h via Lipofectamine 3000 (Life Technologies) with one of the following plasmids: pcDNA3.1 (empty vector, EV), pcDNA3.1-TMPRSS13 WT or pcDNA3.1-TMPRSS13-AFAAS-6His. The cells were then washed 2 times with PBS before HCell-100 medium (Wisent) containing the indicated concentrations of each compound or the control condition (0.01% DMSO) was added. After 24 h of incubation with the compounds, the medium was harvested, and 90 μL was placed in 96-well plate wells with 10 µL of 200 μM Boc-RVRR-AMC. Fluorescence was acquired at room temperature in an FLx800 TBE microplate reader, with excitation at 360 nm and emission at 460 nm. The background was then subtracted by removing the signal recorded with the cells transfected with the empty vector (pcDNA3.1). Proteolytic activity results are represented as a percentage of the DMSO-treated condition. The IC50 was calculated via nonlinear regression of the compound concentration relative to the velocity.

human trypsin = test: Proteolysis assay (stability) with human trypsin; format: in vitro ADME; conditions: human trypsin (isolated protease), pH 7.4, compound final conc. 10 µM, 37 °C
Description: For the proteolysis assay, human trypsin (#T6424, Sigma–Aldrich, Saint-Louis, Missouri, USA) was resuspended in 1 mM HCl and 20 mM CaCl2, pH 3, and diluted to a final concentration of 0.1 mg/ml in PBS buffer (pH 7.4, 10 mM PO43-, 150 mM NaCl). The control peptide R8 and the compounds of interest were added to a 96-well plate (37 °C) to a final concentration of 10 µM. Trypsin (0.1 µg/ml) was added to the wells for 0, 0.5, 1, 2, 4 and 6 h. The plate was quenched with AcN/EtOH (1:1) 1% formic acid and 0.25 mM N,N-dimethylbenzamide (IS) and centrifuged at 4 °C.

in vitro = conditions: final conc. 0.2 mM, 37 °C
Source text: Adult male Sprague-Dawley rats, weighing between 225 and 300 g (Charles River Laboratories, St. Constant, Canada), were housed in groups of four per double-decker cage on Aspen shavings in a quiet environment. They were maintained under a 12-h light/dark cycle with unrestricted access to food and water. All experimental protocols received approval from the Animal Care Committee of the Université de Sherbrooke, adhering to the Canadian Council on Animal Care guidelines. The procedures also followed the ARRIVE guidelines (Animals in Research: Reporting In Vivo Experiments) and the United States NIH regulations (Ethics approval ID: 2022–3440). To evaluate the stability of compounds in plasma, 6 rats were anaesthetised with 2 L/min oxygen and 5% isoflurane, after which plasma was collected, pooled, and stored frozen until experiments were performed.
For evaluating plasma stability, rats were anaesthetised using a flow of 2 L/min of oxygen combined with 5% isoflurane. Blood was obtained via cardiac puncture from the left ventricle using a 20 G ½ needle, collected in pre-chilled Vacutainer K2EDTA tubes (367861), and maintained on wet ice. The blood was then centrifuged at 2000 xG for 15 min at 4 °C. Plasma samples were pooled from six rats, aliquoted, and stored at −80 °C. […] To terminate the reaction, 140 μL of a 1:1 acetonitrile-ethanol solution containing 0.25 mM N,N-dimethylbenzamide (used as an internal standard) was added. The resulting mixture was transferred onto an Impact Protein Precipitation filter plate (Phenomenex, California), with a 96-well UPLC plate positioned below to collect the filtrates. Both plates were centrifuged at 500 × g for 10 min at 4 °C. The filtrates were diluted with 30 μL of distilled water before analysis using an Acquity UPLC-MS system class H (column Acquity UPLC protein BEH C18 (2.1 mm × 50 mm), 1.7 μm particles, 130 Å pore size). The peptide’s half-life was determined from the degradation profile utilising the exponential one-phase decay function in GraphPad Prism 9. Mass spectra obtained at time points close to the calculated half-life were compared with those at 0 min (plasma inactivated prior to compound addition) to identify cleavage fragments.

matriptase = target: T3, matriptase (Homo sapiens, UniProt Q9Y5Y6); test: In vitro inhibition assay, matriptase, Boc-QAR-AMC; format: biochemical; conditions: Morrison Ki equation, tight-binding
T3 construct: made in house
T3 sequence (Q9Y5Y6 1-855): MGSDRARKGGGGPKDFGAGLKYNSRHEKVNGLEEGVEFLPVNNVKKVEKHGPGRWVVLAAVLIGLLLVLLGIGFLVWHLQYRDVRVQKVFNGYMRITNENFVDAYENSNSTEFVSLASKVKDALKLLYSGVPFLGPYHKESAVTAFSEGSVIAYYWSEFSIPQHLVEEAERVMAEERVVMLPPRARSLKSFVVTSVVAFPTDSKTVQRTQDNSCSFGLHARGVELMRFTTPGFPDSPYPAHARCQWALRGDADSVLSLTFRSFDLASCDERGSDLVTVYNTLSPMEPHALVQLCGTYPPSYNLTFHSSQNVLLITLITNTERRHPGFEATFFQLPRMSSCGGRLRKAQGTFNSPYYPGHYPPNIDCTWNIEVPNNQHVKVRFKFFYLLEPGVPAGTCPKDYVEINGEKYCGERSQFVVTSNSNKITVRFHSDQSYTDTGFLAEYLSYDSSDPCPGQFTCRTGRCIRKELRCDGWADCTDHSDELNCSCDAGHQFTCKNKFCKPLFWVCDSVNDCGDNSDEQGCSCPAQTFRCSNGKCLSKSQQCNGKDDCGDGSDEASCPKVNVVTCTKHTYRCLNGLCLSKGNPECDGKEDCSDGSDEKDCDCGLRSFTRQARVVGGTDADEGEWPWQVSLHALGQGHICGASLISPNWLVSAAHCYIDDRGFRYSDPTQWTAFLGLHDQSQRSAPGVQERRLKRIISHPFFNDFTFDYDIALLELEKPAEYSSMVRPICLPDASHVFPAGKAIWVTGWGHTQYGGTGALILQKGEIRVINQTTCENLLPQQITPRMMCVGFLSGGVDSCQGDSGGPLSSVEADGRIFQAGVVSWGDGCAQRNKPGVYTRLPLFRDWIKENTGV
Description: as §1

Factor Xa = target: T4, Factor Xa (Homo sapiens, UniProt P00742); test: In vitro inhibition assay, Factor Xa, Boc-QAR-AMC; format: biochemical; conditions: Cheng-Prusoff equation
T4 construct: purchased R&D Systems
Description: as §1

thrombin = target: T5, thrombin (Homo sapiens, UniProt P00734); test: In vitro inhibition assay, thrombin, Boc-QAR-AMC; format: biochemical
T5 construct: purchased MilliporeSigma
Description: as §1

furin = target: T6, furin (Homo sapiens, UniProt P09958); test: In vitro inhibition assay, furin, Boc-RVRR-AMC; format: biochemical
T6 construct: purchased R&D Systems
Description: as §1

T6 sequence (P09958 108-794): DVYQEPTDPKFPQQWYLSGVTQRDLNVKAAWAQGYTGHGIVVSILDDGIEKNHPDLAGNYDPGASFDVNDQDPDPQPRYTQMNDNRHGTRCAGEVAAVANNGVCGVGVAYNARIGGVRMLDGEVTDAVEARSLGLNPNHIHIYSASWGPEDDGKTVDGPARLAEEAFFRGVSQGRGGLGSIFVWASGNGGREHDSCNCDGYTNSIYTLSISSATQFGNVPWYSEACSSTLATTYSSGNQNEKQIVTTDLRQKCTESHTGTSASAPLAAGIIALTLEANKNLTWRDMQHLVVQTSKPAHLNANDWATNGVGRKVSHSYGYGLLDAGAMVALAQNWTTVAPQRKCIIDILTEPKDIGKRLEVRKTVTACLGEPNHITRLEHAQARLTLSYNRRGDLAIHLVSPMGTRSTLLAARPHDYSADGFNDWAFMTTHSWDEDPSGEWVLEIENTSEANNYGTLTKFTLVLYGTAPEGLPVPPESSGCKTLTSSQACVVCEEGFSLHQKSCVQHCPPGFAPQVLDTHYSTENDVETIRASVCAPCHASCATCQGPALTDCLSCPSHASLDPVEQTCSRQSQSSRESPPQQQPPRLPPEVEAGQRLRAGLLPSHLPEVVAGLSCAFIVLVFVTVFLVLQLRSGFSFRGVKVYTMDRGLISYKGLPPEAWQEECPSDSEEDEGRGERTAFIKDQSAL
T4 sequence (P00742 235-488 limits assumed): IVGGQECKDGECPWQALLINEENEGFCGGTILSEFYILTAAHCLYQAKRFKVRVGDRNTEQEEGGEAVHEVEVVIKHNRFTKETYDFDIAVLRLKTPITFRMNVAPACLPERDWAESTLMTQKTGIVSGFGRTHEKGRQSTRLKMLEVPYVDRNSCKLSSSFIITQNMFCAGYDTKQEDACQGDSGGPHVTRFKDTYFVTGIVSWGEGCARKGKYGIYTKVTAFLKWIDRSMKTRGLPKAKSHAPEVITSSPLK
T4 sequence (P00742 41-179 partner limits assumed): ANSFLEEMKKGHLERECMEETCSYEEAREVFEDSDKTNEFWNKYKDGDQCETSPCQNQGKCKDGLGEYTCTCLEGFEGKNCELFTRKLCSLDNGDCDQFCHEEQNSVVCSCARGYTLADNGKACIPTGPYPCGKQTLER

| Structure (SMILES) | Ki (TMPRSS13) | further results |
| --- | --- | --- |
| C[C@H](NC(=O)[C@H](CCC(N)=O)NC(=O)[C@H](CCCNC(=N)N)NC(=O)c1ccccc1)C(=O)N[C@@H](CCCNC(=N)N)C(=O)c1nc2ccccc2s1 [Compound N-0182, PhCO-RQAR-Kbt] | 28.5 nM |  |
| N=C(N)NCCCCC(=O)N[C@@H](CCC(N)=O)C(=O)N[C@@H](CCc1ccccc1)C(=O)N[C@@H](CCCNC(=N)N)C(O)c1nc2ccccc2s1 (stereo partly drawn) [N-0430(OH), (H)-RQhFR-(OH)bt] | > 10000 nM |  |
| N=C(N)NCCC[C@H](NC(=O)[C@H](CCc1ccccc1)NC(=O)[C@H](CCC(N)=O)NC(=O)[C@@H](N)CCCNC(=N)N)C(=O)c1nc2ccccc2s1 [Compound N-0159, RQhFR-kbt] | 10.3 nM | remaining activity at 10 µM (WT TMPRSS13): 37.7%; half-life at 10 µM (human trypsin): 38.4 h; half-life at 0.2 mM (in vitro; male, Sprague-Dawley, rat, pooled rat plasma (K2EDTA), Mean half-life, Plasma): 9 min; Mean half-life, Plasma (in vitro; rat plasma (male)): 8.97 min |
| N=C(N)NCCC[C@H](NC(=O)[C@H](Cc1ccc(O)cc1)NC(=O)[C@H](CCC(N)=O)NC(=O)[C@@H](N)CCCNC(=N)N)C(=O)c1nc2ccccc2s1 [Compound N-0108] | 22.3 nM |  |
| N=C(N)NCCC[C@H](NC(=O)[C@@H]1CCCN1C(=O)[C@H](CCC(N)=O)NC(=O)[C@@H](N)CCCNC(=N)N)C(=O)c1nc2ccccc2s1 [Compound N-0107, RQPR-kbt] | 14.7 nM |  |
| N=C(N)NCCC[C@H](NC(=O)[C@H](Cc1ccccc1)NC(=O)CCCC(N)=O)C(=O)c1nc2ccccc2s1 [Compound N-0388, (H)-QFR-Kbt] | 1440 nM | Ki (matriptase): 24.2 nM; Ki (Factor Xa): 1200 ± 167 nM; Ki (thrombin): > 10000 nM; Ki (furin): > 10000 nM; residual activity of TMPRSS13 (WT TMPRSS13; 10 µM): 92%; remaining activity at 10 µM (WT TMPRSS13; Vero): 72% |
| C[C@H](NC(=O)CCCCNC(=N)N)C(=O)N[C@@H](Cc1ccccc1)C(=O)N[C@@H](CCCNC(=N)N)C(=O)c1nc2ccccc2s1 [Compound N-0439, (H)-RAFR-Kbt] | 35.9 nM |  |
| C[C@H](NC(=O)[C@H](CCC(N)=O)NC(=O)[C@@H](N)CCCCNC(=N)N)C(=O)N[C@@H](CCCNC(=N)N)C(=O)c1nc2ccccc2s1 [Compound N-0179] | 24.8 nM |  |
| N=C(N)NCCCCC(=O)N[C@@H](CCC(N)=O)C(=O)N[C@@H](CC1CCCCC1)C(=O)N[C@@H](CCCNC(=N)N)C(=O)c1nc2ccccc2s1 [Compound N-0678] | 30 nM |  |
| C[C@H](NC(=O)[C@H](CCC(N)=O)NC(=O)[C@@H](N)CCCNC(=N)N)C(=O)N[C@@H](CCCNC(=N)N)C(=O)c1nc2ccccc2s1 [Compound N-0100] | 31.4 nM |  |
| N=C(N)NCCC[C@H](NC(=O)[C@H](Cc1ccc(F)cc1)NC(=O)[C@H](CCC(N)=O)NC(=O)[C@@H](N)CCCNC(=N)N)C(=O)c1nc2ccccc2s1 [Compound N-0136] | 17.7 nM |  |
